Measured values reported in patent US20230414771A1, “PREPARATION AND USE OF IMMUNOSTIMULATORY CONJUGATED COMPLEXES FOR TARGETED DELIVERY AND ACTIVATION” (YAFEI SHANGHAI BIOLOGY MEDICINE SCIENCE & TECHNOLOGY CO., …, priority 2020, published 2023).
Where a SMILES comes first, the peptide text is derived from it. [ ]: non-standard residue; d: D form. The star is where a group is joined. ξ: configuration not given here. Doxorubicin(3'-N) = COc1cccc2c1C(=O)c1c(O)c3c(c(O)c1C2=O)C[C@@](O)(C(=O)CO)C[C@@H]3O[C@H]1C[C@H](N*)[C@H](O)[C@H](C)O1; X2 = CC(C)(C)c1nc(-c2cccc(NS(=O)(=O)c3c(F)cccc3F)c2F)c(-c2ccnc(N*)n2)s1; Thyronine(3,5,3'-I3) = N[C@@H](Cc1cc(I)c(Oc2ccc(O)c(I)c2)c(I)c1)C(=O)O; Hexanoyl(6-maleimido) = O=C1C=CC(=O)N1CCCCCC(=O)*; Propanoyl(3-maleimido) = O=C1C=CC(=O)N1CCC(=O)*; X1 = O=C1C=CC(=O)N1CCOCCOCCOCCC(=O)*; X3 = O=C1C=CC(=O)N1CCOCCOCCC(=O)*; PEG4 = NCCOCCOCCOCCOCCC(=O)O; PEG3 = NCCOCCOCCOCCC(=O)O; ξL = CC(C)CC(N)C(=O)O

What was measured:
[1] = tested on: NAFLD model mice; test: Nonalcoholic fatty liver disease (NAFLD) model mice, serum HDL-C and LDL-C; format: in vivo; details: NAFLD (high-fat diet) C57 mice, IV twice a week for 8 weeks, 12 hour after last administration, normal group 100%; for Change from normal group HDL-C: serum HDL-C; for Change from normal group LDL-C: serum LDL-C
Protocol: • Methods: C57 mice were randomly divided into normal group (standard diet), model group (high-fat diet), simvastatin group (positive control, 3 mg/kg) and drug group (50 mg/kg), with 6 mice in each group. The normal group was fed with standard diet, and the other groups were fed with high-fat diet to induce NAFLD model. At the same time of modeling, the mice in each group were given the corresponding dose of 48 umol/kg medicine IV twice a week for 8 weeks in total. 12 hour after the last administration, the serum biochemical indicators were determined by automatic biochemical analyzer: High density lipoprotein cholesterol (HDL-C), and low density lipoprotein (LDL-C).

[2] = tested on: CT26 tumor; test: CT26 tumor immune model, tumor suppression and CD8+ T cell analysis; format: in vivo, BALB/c mice; details: for CD8:CD45 (%): CD8-positive among CD45-positive cells in tumor, flow cytometry; for Tumor inhibition rate (%) Day 28 / Tumor volume (mm^3) Day 28: drug 36 umol/kg once a week for three weeks, PD-1 antibody 5 mg/kg
Protocol: • 1) CT26 cells were purchased from ATCC. […] The corresponding 5×10^6 cells were injected subcutaneously into the back of […] mice. After the size of tumors reached at least 100 mm^3, the mice were randomized into groups. Treatment was then initiated, with the day of treatment initiation being Day 1. • 3) The course of treatment. The drug was administered at an equimolar dose of 36 umol/kg. The control group was given normal saline. The drug was administered once a week for three week. • 4) Tumor CD8+ T cell analysis. Tumor tissue was homogenized, individual cells in the tumor were filtered, dissociated and washed twice with buffer, and then incubated with leukocyte common antigen CD45-PE and CD8-FITC-labeled antibodies for 1 hour at room temperature. The cells were washed twice with phosphate buffered saline containing 1% fetal bovine serum, and then the proportion of T lymphocyte antigen (CD8)-positive cells in leukocyte common antigen (CD45)-positive cells was analyzed by flow cytometry. An increase in the ratio indicates an increase in T lymphocytes and therefore an improvement in the immunity of the animal to the tumor. • 5) The grouping and test results are shown in Table 7.

[3] = Water solubility test (observation and HPLC); format: physicochemical; details: thermodynamic from solid
Protocol: The compounds prepared in accordance with the examples of the disclosure and the reference compounds C1, C2, C3 and C4 were lyophilized (−70° C.).

[4] = tested on: M2 macrophages; test: Cytotoxicity screening, inhibition rate of M2 macrophages at 10 uM; format: cell-based, C57BL/6 mice; details: 10 uM drug per well, 3 wells, relative to the drug-free group
Protocol: After the cell count in Example 13, the cell concentration was adjusted with the culture medium, and the cells were seeded in a 96-well culture plate at […] of cell suspension per well, wherein the seeding concentration of CD8+ T cells was 100000 cells/well, and the seeding concentration of M2 macrophages was 20000 cells/well. The 96-well plate was incubated overnight for 24 hour at 37° C. in a carbon dioxide (5%) incubator. After 24 hours, 100 ul of cell culture solutions containing different concentrations of drugs were added to the 96-well culture plate. At the same time, a control well (0.1% DMSO) with no drug added and only the corresponding drug solvent and a zero-adjusted well (Blank) with only medium and no cells added was set. Each set was prepared in triplicate and the plates were incubated for 48 hours at 37° C. in a 5% CO2 incubator. After 48 hours, 20 μl MTT (5 mg/ml) was added to each well and the incubation was continued for 4 hours. The culture medium was then gently aspirated, and 150 μl DMSO was added to each well as solvent for dissolution. After dissolution, the absorbance at 490 nm was measured with a microplate reader.
Cytotoxicity screening experiments for some compounds were performed for M2 macrophage inhibition as in embodiment 14.

[5] = tested on: Human hepatoma HepG2 cells; test: Human liver cancer HepG2 tumors in nude mice; format: in vivo; details: for inhibition in vivo at 54 µmol/kg: Mus musculus, HepG2, iv, 672 h, read-out: Tumor inhibition rate (%) Day 28
Protocol: • 1. Animals: nude mice aged 6-8 weeks, all female. • 2. Preparation of tumor models
Human hepatoma HepG2 cells were purchased from ATCC and identified according to the instructions provided. […] Randomization was performed when the tumor size reached 100 mm^3.
Treatment was then initiated, and the day of initiation of treatment was counted as Day 1. • 3) Treatment process
According to the clinical application of the corresponding compound, the drug was administered intravenously (IV). The compound and the control drug were administered at a dose of 54 umol/kg, and DOX could only be administered at a dose of 18 umol/kg due to toxicity limitations.

[6] = tested on: HT1080 tumors; test: HT1080 tumor model in nude mice, 36 umol/kg; format: in vivo
Protocol: • 1. Animals: nude mice aged 6-8 weeks, all female. • 2. Preparation of tumor models • 1) HT1080 cells were purchased from ATCC and characterized according to the instructions provided. […] Randomization was performed when the tumor size reached 100 mm^3. Treatment was then initiated, and the day of initiation of treatment was counted as Day 1. • 3) Treatment process
According to the clinical application of the corresponding compound, the drug was administered intravenously (IV). The compounds indicated in the table were administered at a low dose and at the same dose of 36 umol/kg.

## CCC(C)(C)C(=O)O[C@H]1C[C@@H](C)C=C2C=C[C@H](C)[C@H](CC[C@@H]3C[C@@H](O)CC(=O)O3)[C@H]21 [simvastatin, reference compound]
[1]
  Change from normal group HDL-C: 86.3%
  Change from normal group LDL-C: 118.3%

## CCOCc1nc2c(NC(=O)OCc3ccc(NC(=O)[C@H](CC(N)=O)NC(=O)[C@H](C)NC(=O)[C@H](C)NC(=O)CCCCCN4C(=O)C=CC4=O)cc3)nc3ccccc3c2n1CC(C)(C)O [QHL-140-resiquimod]
[2]
  CD8:CD45 (%): 15.4%
  Tumor inhibition rate (%) Day 28: 81.9%
  Tumor volume (mm^3) Day 28: 342.8 ± 112.9 mm^3

## C[C@H](NC(=O)CCCCCN1C(=O)C=CC1=O)C(=O)N[C@@H](C)C(=O)N[C@@H](CC(N)=O)C(=O)N[C@@H](Cc1cc(I)c(Oc2ccc(O)c(I)c2)c(I)c1)C(=O)O [QHL-150-T3] ({Hexanoyl(6-maleimido)}-AAN[Thyronine(3,5,3'-I3)]-OH)
[3]
  solubility: > 10000 µg/mL
[1]
  Change from normal group HDL-C: 86.8%
  Change from normal group LDL-C: 119.32%

## COc1cccc2c1C(=O)c1c(O)c3c(c(O)c1C2=O)C[C@@](O)(C(=O)CO)C[C@@H]3O[C@H]1C[C@H](NC(=O)[C@H](CC(C)C)NC(=O)[C@H](CC(N)=O)NC(=O)[C@H](C)NC(=O)[C@H](C)NC(=O)[C@H](CCC(=O)O)NC(=O)CCOCCOCCN2C(=O)C=CC2=O)[C@H](O)[C@H](C)O1 [QHL-021-DOX] (X3-EAANL-{Doxorubicin(3'-N)})
[4]
  Inhibition rate of M2 macrophages: 68.6%

## C[C@H](NC(=O)CCOCCOCCOCCOCCNC(=O)CCN1C(=O)C=CC1=O)C(=O)N[C@@H](C)C(=O)N[C@@H](CC(N)=O)C(=O)N[C@@H](Cc1cc(I)c(Oc2ccc(O)c(I)c2)c(I)c1)C(=O)O [QHL-159-T3] ({Propanoyl(3-maleimido)-PEG4}-AAN[Thyronine(3,5,3'-I3)]-OH)
[3]
  solubility: > 10000 µg/mL
[1]
  Change from normal group HDL-C: 97.7%
  Change from normal group LDL-C: 105.3%

## COc1cccc2c1C(=O)c1c(O)c3c(c(O)c1C2=O)C[C@@](O)(C(=O)CO)C[C@@H]3O[C@H]1C[C@H](NC(=O)[C@H](CC(C)C)NC(=O)[C@H](CC(N)=O)NC(=O)[C@H](C)NC(=O)[C@H](C)NC(=O)[C@H](CC(=O)O)NC(=O)CCCCCN2C(=O)C=CC2=O)[C@H](O)[C@H](C)O1 [QHL-120-DOX] ({Hexanoyl(6-maleimido)}-DAANL-{Doxorubicin(3'-N)})
[5]
  inhibition in vivo at 54 µmol/kg: 92.8%

## COc1cccc2c1C(=O)c1c(O)c3c(c(O)c1C2=O)C[C@@](O)(C(=O)CO)C[C@@H]3O[C@H]1C[C@H](NC(=O)[C@H](CC(C)C)NC(=O)[C@H](CC(N)=O)NC(=O)[C@H](C)NC(=O)[C@H](C)NC(=O)CCOCCOCCOCCN2C(=O)C=CC2=O)[C@H](O)[C@H](C)O1 [QHL-010-DOX] (X1-AANL-{Doxorubicin(3'-N)})
[6]; 36 umol/kg IV once a week for 3 weeks
  Tumor volume (mm^3) Day 28: 0 mm^3
[6]; Mus musculus, HT-1080, iv, 672 h, read-out: Tumor inhibition rate Day 28
  inhibition in vivo at 36 µmol/kg: 100%
[6]; compared with equimolar dose AANL-DOX
  growth inhibition of tumor, outcome in words: the tumor disappeared
[5]; 54 umol/kg IV once a week for 4 weeks
  Tumor volume (mm^3) Day 28: 0 mm^3
[5]
  inhibition in vivo at 54 µmol/kg: 100%

## CC(C)CC(NC(=O)[C@@H](CC(N)=O)NC(=O)[C@@H](C)NC(=O)[C@@H](C)NC(=O)CCOCCOCCOCCNC(=O)CCN1C(=O)C=CC1=O)C(=O)Nc1nccc(-c2sc(C(C)(C)C)nc2-c2cccc(NS(=O)(=O)c3c(F)cccc3F)c2F)n1 (some centres unmarked) [QHL-090-dabrafenib] ({Propanoyl(3-maleimido)-PEG3}-[dA][dA][dN][ξL]-X2)
[3]
  solubility: > 10000 µg/mL
[2]
  CD8:CD45 (%): 7.4%
  Tumor inhibition rate (%) Day 28: 68.7%
  Tumor volume (mm^3) Day 28: 589.7 ± 247.4 mm^3
[2]; combined with PD-1 versus single drug
  therapeutic effect combined with PD-1, in words: a certain synergistic effect
